This assay relates to L1210 leukemia ip in BDF1 mice, survival T/C. Description: NCI In Vivo Anticancer Drug Screen. Data for tumor model L1210 Leukemia (intraperitoneal) in B6D2F1 (BDF1) mice. The conditions noted are these: endpoint: mean survival time, higher = longer survival. The procedure, abridged: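 Value reflects the ratio of survival in compound-treated mice to survival in vehicle-treated controls, with both groups carrying the same transplanted tumor.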

[1] abbreviates: dose: 75.0 mg/kg/injection, schedule: Q01DX001 (ip), vehicle: saline.
[2] abbreviates: dose: 100.0 mg/kg/injection, schedule: Q04DX003 (ip), vehicle: saline with Tween-80.
[3] abbreviates: dose: 200.0 mg/kg/injection, schedule: Q04DX003 (ip), vehicle: saline with Tween-80.
Setting [4] is: dose: 400.0 mg/kg/injection, schedule: Q04DX003 (ip), vehicle: saline with Tween-80.
[5] abbreviates: dose: 100.0 mg/kg/injection, schedule: Q01DX001 (ip), vehicle: Klucel (hydroxypropylcellulose) (HPC).
Where [6] appears, read: dose: 200.0 mg/kg/injection, schedule: Q01DX001 (ip), vehicle: Klucel (hydroxypropylcellulose) (HPC).
Setting [7] is: dose: 100.0 mg/kg/injection, schedule: Q01DX009 (ip), vehicle: Klucel (hydroxypropylcellulose) (HPC).
Where [8] appears, read: dose: 100.0 mg/kg/injection, schedule: Q04DX003 (ip), vehicle: Klucel (hydroxypropylcellulose) (HPC).
Setting [9] is: dose: 200.0 mg/kg/injection, schedule: Q01DX009 (ip), vehicle: Klucel (hydroxypropylcellulose) (HPC).
Where [10] appears, read: dose: 200.0 mg/kg/injection, schedule: Q04DX003 (ip), vehicle: Klucel (hydroxypropylcellulose) (HPC).
[11] abbreviates: dose: 400.0 mg/kg/injection, schedule: Q01DX009 (ip), vehicle: Klucel (hydroxypropylcellulose) (HPC).
Where [12] appears, read: dose: 400.0 mg/kg/injection, schedule: Q04DX003 (ip), vehicle: Klucel (hydroxypropylcellulose) (HPC).
[13] abbreviates: dose: 100.0 mg/kg/injection, schedule: Q01DX001 (ip), vehicle: saline.
Setting [14] is: dose: 200.0 mg/kg/injection, schedule: Q01DX001 (ip), vehicle: saline.
Setting [15] is: dose: 400.0 mg/kg/injection, schedule: Q01DX001 (ip), vehicle: saline.
Where [16] appears, read: dose: 50.0 mg/kg/injection, schedule: Q04DX003 (ip), vehicle: Klucel (hydroxypropylcellulose) (HPC).

This is an account of results in PubChem BioAssay AID248 (DTP/NCI, 2004).

Where “and” joins values, the source holds several entries; their conditions need not be identical. Identical values can stand only once. Toxic doses and inconclusive results are not listed. Square brackets hold non-standard residues; d marks the D form. Peptide text beside a SMILES is read from it. * marks the point of attachment. ξ: configuration not given here. Cbz = O=C(OCc1ccccc1)*; ξP = O=C(O)C1CCCN1

As to `NC(=S)N/N=C\c1c[nH]c2cc(C(F)(F)F)ccc12`, the T/C runs as follows: (dose: 5.0 mg/kg/injection, schedule: Q01DX001 (ip), vehicle: carboxymethylcellulose (CMC)) 101 % of control; (dose: 10.0 mg/kg/injection, schedule: Q01DX001 (ip), vehicle: carboxymethylcellulose (CMC)) 95 % of control; (dose: 20.0 mg/kg/injection, schedule: Q01DX001 (ip), vehicle: carboxymethylcellulose (CMC)) 101 % of control; (dose: 40.0 mg/kg/injection, schedule: Q01DX001 (ip), vehicle: carboxymethylcellulose (CMC)) 101 % of control.
With `O=C(O)CC(=O)c1ccc(I)cc1`, under setting [1], the T/C is 94 % of control.
Take `O=C1CC2=CC3C=CC(N1)C2c1ccccc13` (stereo not given): the T/C by setting is: under setting [2], 101 % of control; under setting [3], 93 % of control; under setting [4], 93 % of control.
For `CC(C)(C)C(=O)Nc1ccc(Cl)cc1C(=O)c1ccccc1`, the T/C (dose: 100.0 mg/kg/injection, schedule: Q01DX009 (ip), vehicle: saline with Tween-80) was 92 % of control and 110 % of control; the T/C (dose: 100.0 mg/kg/injection, schedule: Q04DX002 (ip), vehicle: saline with Tween-80) was 93 % of control and 98 % of control; the T/C (dose: 200.0 mg/kg/injection, schedule: Q01DX009 (ip), vehicle: saline with Tween-80) was 96 % of control and 100 % of control; the T/C (dose: 200.0 mg/kg/injection, schedule: Q04DX002 (ip), vehicle: saline with Tween-80) is 93 % of control and 107 % of control; the T/C (dose: 400.0 mg/kg/injection, schedule: Q01DX009 (ip), vehicle: saline with Tween-80) is 92 % of control and 95 % of control; the T/C (dose: 400.0 mg/kg/injection, schedule: Q04DX002 (ip), vehicle: saline with Tween-80) is 107 % of control and 87 % of control.
For the compound `CC1(C)CCCC2(C)C(=O)C3CCC2C31` (stereo not given), the T/C is, setting by setting: under setting [5], 98 % of control; under setting [6], 91 % of control; (dose: 400.0 mg/kg/injection, schedule: Q01DX001 (ip), vehicle: Klucel (hydroxypropylcellulose) (HPC)) 91 % of control.
`O=NN(CCCl)C(=O)NC1CCS(=O)(=O)C1` (stereo not given) (tested in a mixture with another compound): the T/C (dose: 6.0 mg/kg/injection, schedule: Q01DX001 (ip), vehicle: other) was 177 % of control; the T/C (dose: 9.0 mg/kg/injection, schedule: Q01DX001 (ip), vehicle: other) was 270 % of control; the T/C (dose: 13.0 mg/kg/injection, schedule: Q01DX001 (ip), vehicle: other) is 300 % of control; the T/C (dose: 20.0 mg/kg/injection, schedule: Q01DX001 (ip), vehicle: other) is 200 % of control; the T/C (dose: 30.0 mg/kg/injection, schedule: Q01DX001 (ip), vehicle: other) was 223 % of control; the T/C (dose: 44.0 mg/kg/injection, schedule: Q01DX001 (ip), vehicle: other) was 184 % of control. Also, where the note is “dose: 67.0 mg/kg/injection, schedule: Q01DX001 (ip), vehicle: other”, the T/C is 102 % of control.
As to `COc1ccc(C2NC(=O)c3ccccc3N2)c(OC)c1OC` (stereo not given), the T/C is, setting by setting: under setting [7], 105 % of control; under setting [8], 97 % of control; under setting [9], 100 % of control; under setting [10], 101 % of control; under setting [11], 106 % of control; under setting [12], 102 % of control.
Consider `O=C1Nc2ccccc2C1=Nc1ccc2[nH]c3ccccc3c2c1`, for which the T/C (dose: 100.0 mg/kg/injection, schedule: Q01DX001 (ip), vehicle: carboxymethylcellulose (CMC)) is 91 % of control; the T/C (dose: 200.0 mg/kg/injection, schedule: Q01DX001 (ip), vehicle: carboxymethylcellulose (CMC)) was 94 % of control; the T/C (dose: 400.0 mg/kg/injection, schedule: Q01DX001 (ip), vehicle: carboxymethylcellulose (CMC)) is 91 % of control.
Regarding `Cc1ccc(Nc2c3ccccc3nc3ccccc23)cc1`, the T/C is, setting by setting: (dose: 18.0 mg/kg/injection, schedule: Q01DX009 (ip), vehicle: saline with Tween-80) 100 % of control; (dose: 37.5 mg/kg/injection, schedule: Q01DX009 (ip), vehicle: saline with Tween-80) 110 % of control; (dose: 40.0 mg/kg/injection, schedule: Q04DX003 (ip), vehicle: saline with Tween-80) 96 % of control; (dose: 65.0 mg/kg/injection, schedule: Q04DX003 (ip), vehicle: saline with Tween-80) 106 % of control; under setting [1], 100 % of control (2×) and 105 % of control; (dose: 75.0 mg/kg/injection, schedule: Q01DX009 (ip), vehicle: saline with Tween-80) 113 % of control. Moreover, the T/C by setting is: (dose: 75.0 mg/kg/injection, schedule: Q04DX003 (ip), vehicle: saline with Tween-80) 100 % of control; (dose: 95.0 mg/kg/injection, schedule: Q04DX003 (ip), vehicle: saline with Tween-80) 123 % of control; (dose: 150.0 mg/kg/injection, schedule: Q01DX001 (ip), vehicle: saline) 118 % of control; (dose: 150.0 mg/kg/injection, schedule: Q04DX003 (ip), vehicle: saline with Tween-80) 107 % of control and 88 % of control; (dose: 225.0 mg/kg/injection, schedule: Q04DX003 (ip), vehicle: saline with Tween-80) 118 % of control.
With `O=C(O)C1OC(Oc2ccc3oc4ccccc4c(=O)c3c2)C(O)C(O)C1O` (stereo not given), the T/C under setting [7] was 91 % of control, the T/C under setting [9] is 97 % of control and the T/C under setting [11] is 111 % of control.
Regarding `COc1ccc(-n2c(=O)c(N=Nc3ccc(Br)cc3)c(O)n(-c3ccccc3OC)c2=S)cc1`, the T/C runs as follows: (dose: 50.0 mg/kg/injection, schedule: Q01DX001 (ip), vehicle: Klucel (hydroxypropylcellulose) (HPC)) 106 % of control; under setting [5], 103 % of control; under setting [6], 103 % of control.
Take `FC(F)OC(F)(F)C(F)Cl` (stereo not given): the T/C is, setting by setting: under setting [13], 89 % of control; under setting [14], 89 % of control; under setting [15], 97 % of control.
Turning to `O=C(NCC(=O)N1CCCC1C(=O)O)OCc1ccccc1` (stereo not drawn) (Cbz-Gly-[ξP]-OH), the T/C runs as follows: (dose: 50.0 mg/kg/injection, schedule: Q01DX009 (ip), vehicle: Klucel (hydroxypropylcellulose) (HPC)) 93 % of control; under setting [16], 96 % of control; under setting [7], 97 % of control; under setting [8], 91 % of control; under setting [9], 93 % of control; under setting [10], 93 % of control.
Take `CC(C)=CCC/C(C)=C/CC/C(C)=C/COC(N)=O`: the T/C under setting [8] is 93 % of control, the T/C under setting [10] was 96 % of control and the T/C under setting [12] was 91 % of control.
With `C=CCNC(=S)Nc1cccc2ccccc12`, the T/C by setting is: (dose: 12.5 mg/kg/injection, schedule: Q04DX003 (ip), vehicle: Klucel (hydroxypropylcellulose) (HPC)) 105 % of control; (dose: 25.0 mg/kg/injection, schedule: Q04DX003 (ip), vehicle: Klucel (hydroxypropylcellulose) (HPC)) 96 % of control; under setting [16], 105 % of control.
Turning to `CCCCOC(N)=O`, the T/C reads like this: (dose: 50.0 mg/kg/injection, schedule: Q01DX001 (ip), vehicle: saline) 105 % of control; under setting [13], 95 % of control; under setting [2], 95 % of control and 100 % of control; under setting [14], 93 % of control; under setting [3], 95 % of control and 97 % of control; under setting [15], 98 % of control. The T/C under setting [4] was 97 % of control and 102 % of control.
`CN(C(=O)c1cccc([N+](=O)[O-])c1)C1CCCCC1`: the T/C was 93 % of control under setting [7], 100 % of control under setting [9] and 96 % of control under setting [11].
